Test results published in patent publication US20050209278A1, “Piperidinyl- and piperazinyl-sulfonylmethyl hydroxamic acids and their use as protease inhibitors” (priority 2002, published 2005).

Target: T1, MMP-2 (Homo sapiens, UniProt P08253)
T1 construct: made in house; host or cells: MMP-2-transfected p2AHT2 cells
T1 sequence (P08253 110-660): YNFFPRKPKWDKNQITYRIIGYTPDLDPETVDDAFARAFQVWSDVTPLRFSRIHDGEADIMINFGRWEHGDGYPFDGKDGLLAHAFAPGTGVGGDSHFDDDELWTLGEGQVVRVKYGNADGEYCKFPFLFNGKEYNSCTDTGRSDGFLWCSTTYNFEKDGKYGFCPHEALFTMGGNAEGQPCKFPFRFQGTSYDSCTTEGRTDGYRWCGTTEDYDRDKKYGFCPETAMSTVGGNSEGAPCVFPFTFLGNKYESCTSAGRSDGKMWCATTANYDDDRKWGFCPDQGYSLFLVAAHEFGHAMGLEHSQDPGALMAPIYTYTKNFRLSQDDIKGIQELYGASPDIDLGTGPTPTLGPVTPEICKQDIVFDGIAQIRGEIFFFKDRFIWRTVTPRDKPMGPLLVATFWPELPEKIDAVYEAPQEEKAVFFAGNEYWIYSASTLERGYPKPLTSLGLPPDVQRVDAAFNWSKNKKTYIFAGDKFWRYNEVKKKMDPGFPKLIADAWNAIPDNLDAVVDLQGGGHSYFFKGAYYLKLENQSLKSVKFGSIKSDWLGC
Experiment: In vitro MMP inhibition, IC50 determination (fluorogenic substrate I)
Assay type: biochemical
Settings: value in parentheses; read-out: MMP-2 (IC-50)
Method: Several hydroxamic acids and salts thereof were analyzed in in vitro assays to determine their ability to inhibit the MMP cleavage of peptide substrates. […] and IC50 constants were calculated from the assayed hydroxamic acid-MMP interactions.
Human recombinant MMP-1, MMP-2, MMP-9, MMP-13, and MMP-14 were used in this assay. All enzymes were prepared in Assignee's laboratories following usual laboratory procedures. Protocols for the preparation and use of these enzymes are available in the scientific literature. See, e.g., Enzyme Nomenclature (Academic Press, San Diego, Calif., 1992) (and the citations therein). See also, Freije et al., “Molecular cloning and expression of collagenase-3, a novel human matrix metalloproteinase produced by breast carcinomas,” J Biol. Chem., 269(24), 16766-16773 (1994).
The MMP-2 proenzyme was purified by gelatin Sepharose chromatography from MMP-2-transfected p2AHT2 cells provided by Dr. Gregory Goldberg of Washington University (St. Louis, Mo.).
All MMPs were activated using 4-aminophenylmercuric acetate (“APMA”, Sigma Chemical, St. Louis, Mo.) or trypsin. MMP-9 also was activated using human recombinant MMP-3 (purified in Assignee's laboratory following standard cloning and purification techniques).
Two fluorogenic, methoxycoumarin-containing polypeptide substrates were used in the MMP inhibition assays: [drawing 427] Here, “Dpa” is 3-(2,4-dinitrophenyl)-L-2,3-diaminopropionyl group, and “MCA” is 7-methoxycoumarin-4-yl acetyl. Substrate (I) was purchased from Baychem (Redwood City, Calif.), and substrate II was prepared Assignee's laboratory. Substrate I was used in the IC50 determination assays, while substrate II was used in the Ki determination assays. In the absence of MMP inhibitory activity, either substrate is cleaved at the Gly-Leu peptide bond. This cleavage separates the highly fluorogenic peptide from the 2,4-dinitrophenyl quencher, thus resulting in increase of fluorescent intensity.
The stock solutions of the assayed hydroxamic acids (or salts thereof) were prepared in 1% dimethyl sulfoxide (DMSO). These stock solutions were diluted in Buffer A (100 mM Tris-HCl, 100 mM NaCl, 10 mM CaCl2, 0.05% polyoxyethylene 23 lauryl ether, pH 7.5) to obtain solutions with different hydroxamic acid concentrations, i.e., assay solutions with different concentrations of the assayed MMP inhibitory compound. The experiment controls contained the same amount of Buffer A/DMSO as the assayed sample, but contained no hydroxamic acid (or salt thereof).
The assays from which the IC50 determinations were made were performed as follows. The MMPs were activated with either trypsin or APMA (4-aminophenylmercuric acetate, Sigma Chemical, St. Louis, Mo.). The assayed hydroxamic acid samples were incubated in Microfluor™ White Plates (Dynatech, Chantilly, Va.) and analyzed on a Perkin Elmer L550 plate reader (Norwalk, Conn.). The excitation wavelength was 328 nm, and the emission wavelength—415 nm. All samples (assayed hydroxamic acids and controls) were incubated in separate plates at room temperature in the presence of 4 μM of MMP substrate (I). As stated in the previous paragraph, samples containing varying concentrations of the same assayed hydroxamic acid were prepared. Inhibition was measured as a reduction in fluorescent intensity as a function of MMP inhibitor concentration.
The above protocols were used to determine IC50 constants and Ki values for the compounds in Examples 1-27 above. All values in Table 2 are given in nM units. The IC50 measurements are in parenthesis.

| Structure (SMILES) | IC50 [nM] |
| --- | --- |
| CCCCOc1ccc(N2CCN(S(=O)(=O)C3(C(=O)NO)CCN(Cc4cccnc4)CC3)CC2)cc1F [Example 293] | 0.3 |
| CCCCOc1ccc(N2CCN(S(=O)(=O)C3(C(=O)NO)CCN(c4ccc(C)cc4)CC3)CC2)cc1 [Example 295] | < 0.1 |
| CCCCOc1ccc(N2CCN(S(=O)(=O)C3(C(=O)NO)CCN(c4ccc(C)cc4)CC3)CC2)cc1F [Example 296] | < 0.1 |
| COCCOc1ccc(N2CCN(S(=O)(=O)C3(C(=O)NO)CCN(C4CC4)CC3)CC2)cc1F [Example 297] | 0.4 |
| Cc1cc(N2CCN(S(=O)(=O)C3(C(=O)NO)CCOCC3)CC2)ccc1OC(C)C [Example 299] | 12.5 |
| CS(=O)(=O)c1ccc(N2CCN(S(=O)(=O)C3(C(=O)NO)CCOCC3)CC2)cc1 [Example 300] | 27.3 |

The next lines start with the values.

| IC50 [nM] | Structure (SMILES) |
| --- | --- |
| 0.2 | CCCCOc1ccc(N2CCN(S(=O)(=O)C3(C(=O)NO)CCN(C(=O)CN)CC3)CC2)cc1 [Example 292] |
| 1.1 | CCCCOc1ccc(N2CCN(S(=O)(=O)C3(C(=O)NO)CCN(CC4CC4)CC3)CC2)cc1 [Example 298] |
| 0.2 | CCCCOc1ccc(N2CCN(S(=O)(=O)C3(C(=O)NO)CCN(C4CC4)CC3)CC2)cc1 [Example 301] |
| 0.1 | C#CCN1CCC(C(=O)NO)(S(=O)(=O)N2CCN(c3ccc(OCCCC)cc3)CC2)CC1 [Example 303] |
